Like-named read-outs stand apart in the source and are kept apart here.
Tested on: recombinant NL4-3 virus (Renilla luciferase in nef, Gag P373S)
Test: HIV Cell Culture Assay (luciferase reporter virus in MT-2 cells)
Format: cell-based
Outline: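 Inhibitor potency against the reporter virus comes from reduced luciferase activity in infected MT-2 cells exposed to a dilution series of compound over 4-5 days.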

Row | SMILES | EC50 (NL43) | EC50 (NL43, read-out: EC50 Group)
1 | C=C(C)[C@@H]1CC[C@]2(C(=O)NCc3ccc(Cl)cc3)CC[C@]3(C)[C@H](CC[C@@H]4[C@@]5(C)CC=C(c6ccc(C(=O)O)cc6)C(C)(C)[C@@H]5CC[C@]43C)[C@@H]12 [Example 60, 4-((1R,3aS,5aR,5bR,7aR,11aS,11bR,13aR,13bR)-3a-(4-chlorobenzylcarbamoyl)-5a,5b,8,8,11a-pentamethyl-1-(prop-1-en-2-yl)-2,3,3a,4,5,5a,5b,6,7,7a,8,11,11a,11b,12,13,13a,13b-octadecahydro-1H-cyclopenta[a]chrysen-9-yl)benzoic acid] | 48 nM | 
2 | C=C(C)[C@@H]1CC[C@]2(C(=O)N[C@H](C(=O)O)C(C)C)CC[C@]3(C)[C@H](CC[C@@H]4[C@@]5(C)CC=C(c6ccc(C(=O)O)cc6)C(C)(C)[C@@H]5CC[C@]43C)[C@@H]12 [Example 61, 4-((1R,3aS,5aR,5bR,7aR,11aS,11bR,13aR,13bR)-3a-((S)-1-carboxy-2-methylpropylcarbamoyl)-5a,5b,8,8,11a-pentamethyl-1-(prop-1-en-2-yl)-2,3,3a,4,5,5a,5b,6,7,7a,8,11,11a,11b,12,13,13a,13b-octadecahydro-1H-cyclopenta[a]chrysen-9-yl)benzoic acid] |  | < 100 nM
3 | C=C(C)[C@@H]1CC[C@]2(C(=O)NCC(=O)O)CC[C@]3(C)[C@H](CC[C@@H]4[C@@]5(C)CC=C(c6ccc(C(=O)O)cc6)C(C)(C)[C@@H]5CC[C@]43C)[C@@H]12 [Example 62, 4-((1R,3aS,5aR,5bR,7aR,11aS,11bR,13aR,13bR)-3a-(carboxymethylcarbamoyl)-5a,5b,8,8,11a-pentamethyl-1-(prop-1-en-2-yl)-2,3,3a,4,5,5a,5b,6,7,7a,8,11,11a,11b,12,13,13a,13b-octadecahydro-1H-cyclopenta[a]chrysen-9-yl)benzoic acid] |  | > 100 nM
4 | C=C(C)[C@@H]1CC[C@]2(C(=O)N[C@@H](CCSC)C(=O)O)CC[C@]3(C)[C@H](CC[C@@H]4[C@@]5(C)CC=C(c6ccc(C(=O)O)cc6)C(C)(C)[C@@H]5CC[C@]43C)[C@@H]12 [Example 63, 4-((1R,3aS,5aR,5bR,7aR,11aS,11bR,13aR,13bR)-3a-((S)-1-carboxy-3-(methylthio)propylcarbamoyl)-5a,5b,8,8,11a-pentamethyl-1-(prop-1-en-2-yl)-2,3,3a,4,5,5a,5b,6,7,7a,8,11,11a,11b,12,13,13a,13b-octadecahydro-1H-cyclopenta[a]chrysen-9-yl)benzoic acid] |  | > 100 nM
5 | C=C(C)[C@@H]1CC[C@]2(C(=O)NCC(O)CN)CC[C@]3(C)[C@H](CC[C@@H]4[C@@]5(C)CC=C(c6ccc(C(=O)O)cc6)C(C)(C)[C@@H]5CC[C@]43C)[C@@H]12 (stereo partly drawn) [Example 64, 4-((1R,3aS,5aR,5bR,7aR,11aS,11bR,13aR,13bR)-3a-(3-amino-2-hydroxypropylcarbamoyl)-5a,5b,8,8,11a-pentamethyl-1-(prop-1-en-2-yl)-2,3,3a,4,5,5a,5b,6,7,7a,8,11,11a,11b,12,13,13a,13b-octadecahydro-1H-cyclopenta[a]chrysen-9-yl)benzoic acid] |  | < 100 nM
6 | C=C(C)[C@@H]1CC[C@]2(C(=O)N[C@@H](CN(C)C)C(=O)O)CC[C@]3(C)[C@H](CC[C@@H]4[C@@]5(C)CC=C(c6ccc(C(=O)O)cc6)C(C)(C)[C@@H]5CC[C@]43C)[C@@H]12 [Example 65, 4-((1R,3aS,5aR,5bR,7aR,11aS,11bR,13aR,13bR)-3a-((S)-1-carboxy-2-(dimethylamino)ethylcarbamoyl)-5a,5b,8,8,11a-pentamethyl-1-(prop-1-en-2-yl)-2,3,3a,4,5,5a,5b,6,7,7a,8,11,11a,11b,12,13,13a,13b-octadecahydro-1H-cyclopenta[a]chrysen-9-yl)benzoic acid] |  | < 100 nM
7 | C=C(C)[C@@H]1CC[C@]2(C(=O)NCCN(C)C)CC[C@]3(C)[C@H](CC[C@@H]4[C@@]5(C)CC=C(c6ccc(C(=O)O)s6)C(C)(C)[C@@H]5CC[C@]43C)[C@@H]12 [Example 66, 5-((1R,3aS,5aR,5bR,7aR,11aS,11bR,13aR,13bR)-3a-(2-(dimethylamino)ethylcarbamoyl)-5a,5b,8,8,11a-pentamethyl-1-(prop-1-en-2-yl)-2,3,3a,4,5,5a,5b,6,7,7a,8,11,11a,11b,12,13,13a,13b-octadecahydro-1H-cyclopenta[a]chrysen-9-yl)thiophene-2-carboxylic acid] |  | < 100 nM
8 | C=C(C)[C@@H]1CC[C@]2(C(=O)NCCN(C(C)C)C(C)C)CC[C@]3(C)[C@H](CC[C@@H]4[C@@]5(C)CC=C(c6ccc(C(=O)O)cc6)C(C)(C)[C@@H]5CC[C@]43C)[C@@H]12 [Example 67, 4-((1R,3aS,5aR,5bR,7aR,11aS,11bR,13aR,13bR)-3a-(2-(diisopropylamino)ethylcarbamoyl)-5a,5b,8,8,11a-pentamethyl-1-(prop-1-en-2-yl)-2,3,3a,4,5,5a,5b,6,7,7a,8,11,11a,11b,12,13,13a,13b-octadecahydro-1H-cyclopenta[a]chrysen-9-yl)benzoic acid] | 3.8 nM | 
9 | C=C(C)[C@@H]1CC[C@]2(C(=O)N[C@@H](C)CN(C)C)CC[C@]3(C)[C@H](CC[C@@H]4[C@@]5(C)CC=C(c6ccc(C(=O)O)cc6)C(C)(C)[C@@H]5CC[C@]43C)[C@@H]12 [Example 68, 4-((1R,3aS,5aR,5bR,7aR,11aS,11bR,13aR,13bR)-3a-((S)-1-(dimethylamino)propan-2-ylcarbamoyl)-5a,5b,8,8,11a-pentamethyl-1-(prop-1-en-2-yl)-2,3,3a,4,5,5a,5b,6,7,7a,8,11,11a,11b,12,13,13a,13b-octadecahydro-1H-cyclopenta[a]chrysen-9-yl)benzoic acid] |  | < 100 nM
10 | C=C(C)[C@@H]1CC[C@]2(C(=O)NCCOC)CC[C@]3(C)[C@H](CC[C@@H]4[C@@]5(C)CC=C(c6ccc(C(=O)O)cc6)C(C)(C)[C@@H]5CC[C@]43C)[C@@H]12 [Example 69, 4-((1R,3aS,5aR,5bR,7aR,11aS,11bR,13aR,13bR)-3a-(2-methoxyethylcarbamoyl)-5a,5b,8,8,11a-pentamethyl-1-(prop-1-en-2-yl)-2,3,3a,4,5,5a,5b,6,7,7a,8,11,11a,11b,12,13,13a,13b-octadecahydro-1H-cyclopenta[a]chrysen-9-yl)benzoic acid] |  | < 100 nM
11 | C=C(C)[C@@H]1CC[C@]2(C(=O)NCCN(CC)CC)CC[C@]3(C)[C@H](CC[C@@H]4[C@@]5(C)CC=C(c6ccc(C(=O)O)cc6)C(C)(C)[C@@H]5CC[C@]43C)[C@@H]12 [Example 70, 4-((1R,3aS,5aR,5bR,7aR,11aS,11bR,13aR,13bR)-3a-(2-(diethylamino)ethylcarbamoyl)-5a,5b,8,8,11a-pentamethyl-1-(prop-1-en-2-yl)-2,3,3a,4,5,5a,5b,6,7,7a,8,11,11a,11b,12,13,13a,13b-octadecahydro-1H-cyclopenta[a]chrysen-9-yl)benzoic acid] |  | < 100 nM
12 | C=C(C)[C@@H]1CC[C@]2(C(=O)NCC(O)CO)CC[C@]3(C)[C@H](CC[C@@H]4[C@@]5(C)CC=C(c6ccc(C(=O)O)cc6)C(C)(C)[C@@H]5CC[C@]43C)[C@@H]12 (stereo partly drawn) [Example 71, 4-((1R,3aS,5aR,5bR,7aR,11aS,11bR,13aR,13bR)-3a-(2,3-dihydroxypropylcarbamoyl)-5a,5b,8,8,11a-pentamethyl-1-(prop-1-en-2-yl)-2,3,3a,4,5,5a,5b,6,7,7a,8,11,11a,11b,12,13,13a,13b-octadecahydro-1H-cyclopenta[a]chrysen-9-yl)benzoic acid] |  | < 100 nM
13 | C=C(C)[C@@H]1CC[C@]2(C(=O)NCCN(CC)CCO)CC[C@]3(C)[C@H](CC[C@@H]4[C@@]5(C)CC=C(c6ccc(C(=O)O)cc6)C(C)(C)[C@@H]5CC[C@]43C)[C@@H]12 [Example 72, 4-((1R,3aS,5aR,5bR,7aR,11aS,11bR,13aR,13bR)-3a-(2-(ethyl(2-hydroxyethyl)amino)ethylcarbamoyl)-5a,5b,8,8,11a-pentamethyl-1-(prop-1-en-2-yl)-2,3,3a,4,5,5a,5b,6,7,7a,8,11,11a,11b,12,13,13a,13b-octadecahydro-1H-cyclopenta[a]chrysen-9-yl)benzoic acid] |  | < 100 nM
14 | C=C(C)[C@@H]1CC[C@]2(C(=O)NCCN(C)CCO)CC[C@]3(C)[C@H](CC[C@@H]4[C@@]5(C)CC=C(c6ccc(C(=O)O)cc6)C(C)(C)[C@@H]5CC[C@]43C)[C@@H]12 [Example 73, 4-((1R,3aS,5aR,5bR,7aR,11aS,11bR,13aR,13bR)-3a-(2-((2-hydroxyethyl)(methyl)amino)ethylcarbamoyl)-5a,5b,8,8,11a-pentamethyl-1-(prop-1-en-2-yl)-2,3,3a,4,5,5a,5b,6,7,7a,8,11,11a,11b,12,13,13a,13b-octadecahydro-1H-cyclopenta[a]chrysen-9-yl)benzoic acid] |  | < 100 nM
15 | C=C(C)[C@@H]1CC[C@]2(C(=O)NCCNCCO)CC[C@]3(C)[C@H](CC[C@@H]4[C@@]5(C)CC=C(c6ccc(C(=O)O)cc6)C(C)(C)[C@@H]5CC[C@]43C)[C@@H]12 [Example 74, 4-((1R,3aS,5aR,5bR,7aR,11aS,11bR,13aR,13bR)-3a-(2-(2-hydroxyethylamino)ethylcarbamoyl)-5a,5b,8,8,11a-pentamethyl-1-(prop-1-en-2-yl)-2,3,3a,4,5,5a,5b,6,7,7a,8,11,11a,11b,12,13,13a,13b-octadecahydro-1H-cyclopenta[a]chrysen-9-yl)benzoic acid] |  | < 100 nM
16 | C=C(C)[C@@H]1CC[C@]2(C(=O)NCCN(C)C(C)=O)CC[C@]3(C)[C@H](CC[C@@H]4[C@@]5(C)CC=C(c6ccc(C(=O)O)cc6)C(C)(C)[C@@H]5CC[C@]43C)[C@@H]12 [Example 75, 4-((1R,3aS,5aR,5bR,7aR,11aS,11bR,13aR,13bR)-5a,5b,8,8,11a-pentamethyl-3a-(2-(N-methylacetamido)ethylcarbamoyl)-1-(prop-1-en-2-yl)-2,3,3a,4,5,5a,5b,6,7,7a,8,11,11a,11b,12,13,13a,13b-octadecahydro-1H-cyclopenta[a]chrysen-9-yl)benzoic acid] |  | < 100 nM

— patent US8802661B2, “C-28 amides of modified C-3 betulinic acid derivatives as HIV maturation inhibitors” (priority 2010, dated 2014)
